Results reported in ChEMBL document CHEMBL3885881, “DrugMatrix”.

Species: Rattus norvegicus
Experiment: DrugMatrix - Regimen: Daily Repeat
Assay type: toxicity, organism-based, Sprague-Dawley
Set-up: regimen Daily Repeat, gender Male, age 6-8 weeks
Settings: in vivo, po, route oral GAVAGE, vehicle .5 % CMC; for ABSOLUTE BASOPHIL / ABSOLUTE EOSINOPHIL / ABSOLUTE LYMPHOCYTE / ABSOLUTE MONOCYTE / ABSOLUTE SEGMENTED NEUTROPHIL / BASOPHIL / EOSINOPHIL / ERYTHROCYTE COUNT / HEMATOCRIT / HEMOGLOBIN / LEUKOCYTE COUNT / LYMPHOCYTE / MEAN CORPUSCULAR HEMOGLOBIN / MEAN CORPUSCULAR HEMOGLOBIN CONCENTRATION / MEAN CORPUSCULAR VOLUME / MONOCYTE / NEUTROPHIL / NUCLEATED RED BLOOD CELLS / PLATELET COUNT: tissue Blood; for ALANINE AMINOTRANSFERASE / ALBUMIN / ALKALINE PHOSPHATASE / ASPARTATE AMINOTRANSFERASE / BLOOD UREA NITROGEN / CARBON DIOXIDE / CHLORIDE / CHOLESTEROL / CREATINE PHOSPHOKINASE / CREATININE / GLUCOSE / LACTATE DEHYDROGENASE / LIPASE / PHOSPHORUS / POTASSIUM / SODIUM / TOTAL BILIRUBIN / TOTAL PROTEIN / URIC ACID: tissue Plasma
[1] = 1 mg/kg, 72 h, dose level Low, time 3 day
[2] = 1 mg/kg, 120 h, dose level Low, time 5 day
[3] = 1500 mg/kg, 72 h, dose level High, time 3 day
[4] = 1500 mg/kg, 120 h, dose level High, time 5 day

CCOC(=O)[C@H](CCc1ccccc1)N[C@@H](C)C(=O)N1[C@H](C(=O)O)C[C@@H]2CCC[C@@H]21
ABSOLUTE BASOPHIL [1]: 0 CELLS/uL
ABSOLUTE EOSINOPHIL [1]: 0 CELLS/uL
ABSOLUTE LYMPHOCYTE [1]: 13012 CELLS/uL
ABSOLUTE MONOCYTE [1]: 125.67 CELLS/uL
ABSOLUTE SEGMENTED NEUTROPHIL [1]: 829 CELLS/uL
BASOPHIL [1]: 0%
EOSINOPHIL [1]: 0%
ERYTHROCYTE COUNT [1]: 5.51 x10E6/uL
HEMATOCRIT [1]: 35.1%
HEMOGLOBIN [1]: 14.07 G/DL
LEUKOCYTE COUNT [1]: 13.97 x10E3/uL
LYMPHOCYTE [1]: 92.67%
MEAN CORPUSCULAR HEMOGLOBIN [1]: 25.53 pg
MEAN CORPUSCULAR HEMOGLOBIN CONCENTRATION [1]: 40.07 G/DL
MEAN CORPUSCULAR VOLUME [1]: 63.73 fL
MONOCYTE [1]: 1%
NEUTROPHIL [1]: 6.33%
NUCLEATED RED BLOOD CELLS [1]: 0 /100WBC
PLATELET COUNT [1]: 1322.67 x10E3/uL
ALANINE AMINOTRANSFERASE [1]: 44.33 u/L
ALBUMIN [1]: 4.53 G/DL
ALKALINE PHOSPHATASE [1]: 320.33 u/L
ASPARTATE AMINOTRANSFERASE [1]: 82 u/L
BLOOD UREA NITROGEN [1]: 17 mg/dL
CARBON DIOXIDE [1]: 28 mmol/L
CHLORIDE [1]: 100.33 MEQ/L
CHOLESTEROL [1]: 74.33 mg/dL
CREATINE PHOSPHOKINASE [1]: 223 u/L
CREATININE [1]: 0.15 mg/dL
GLUCOSE [1]: 156.33 mg/dL
LACTATE DEHYDROGENASE [1]: 243 u/L
LIPASE [1]: 9.33 u/L
PHOSPHORUS [1]: 13.7 mg/dL
POTASSIUM [1]: 7.23 MEQ/L
SODIUM [1]: 146.6 MEQ/L
TOTAL BILIRUBIN [1]: 0.27 mg/dL
TOTAL PROTEIN [1]: 6.27 G/DL
URIC ACID [1]: 1.87 mg/dL
ABSOLUTE BASOPHIL [2]: 0 CELLS/uL
ABSOLUTE EOSINOPHIL [2]: 73 CELLS/uL
ABSOLUTE LYMPHOCYTE [2]: 14658 CELLS/uL
ABSOLUTE MONOCYTE [2]: 332.67 CELLS/uL
ABSOLUTE SEGMENTED NEUTROPHIL [2]: 1636.33 CELLS/uL
BASOPHIL [2]: 0%
EOSINOPHIL [2]: 0.33%
ERYTHROCYTE COUNT [2]: 5.38 x10E6/uL
HEMATOCRIT [2]: 35.13%
HEMOGLOBIN [2]: 13.27 G/DL
LEUKOCYTE COUNT [2]: 16.7 x10E3/uL
LYMPHOCYTE [2]: 88.33%
MEAN CORPUSCULAR HEMOGLOBIN [2]: 24.7 pg
MEAN CORPUSCULAR HEMOGLOBIN CONCENTRATION [2]: 37.8 G/DL
MEAN CORPUSCULAR VOLUME [2]: 65.37 fL
MONOCYTE [2]: 1.67%
NEUTROPHIL [2]: 9.67%
NUCLEATED RED BLOOD CELLS [2]: 0 /100WBC
PLATELET COUNT [2]: 1368.33 x10E3/uL
ALANINE AMINOTRANSFERASE [2]: 58.33 u/L
ALBUMIN [2]: 4.37 G/DL
ALKALINE PHOSPHATASE [2]: 395 u/L
ASPARTATE AMINOTRANSFERASE [2]: 74.67 u/L
BLOOD UREA NITROGEN [2]: 20 mg/dL
CARBON DIOXIDE [2]: 28.67 mmol/L
CHLORIDE [2]: 101.67 MEQ/L
CHOLESTEROL [2]: 69.67 mg/dL
CREATINE PHOSPHOKINASE [2]: 158.67 u/L
CREATININE [2]: 0.2 mg/dL
GLUCOSE [2]: 153.67 mg/dL
LACTATE DEHYDROGENASE [2]: 81.67 u/L
LIPASE [2]: 8.33 u/L
PHOSPHORUS [2]: 12.57 mg/dL
POTASSIUM [2]: 6.7 MEQ/L
SODIUM [2]: 146.17 MEQ/L
TOTAL BILIRUBIN [2]: 0.2 mg/dL
TOTAL PROTEIN [2]: 6.03 G/DL
URIC ACID [2]: 1.43 mg/dL
ABSOLUTE BASOPHIL [3]: 0 CELLS/uL
ABSOLUTE EOSINOPHIL [3]: 134.33 CELLS/uL
ABSOLUTE LYMPHOCYTE [3]: 16266.67 CELLS/uL
ABSOLUTE MONOCYTE [3]: 0 CELLS/uL
ABSOLUTE SEGMENTED NEUTROPHIL [3]: 1032.33 CELLS/uL
BASOPHIL [3]: 0%
EOSINOPHIL [3]: 0.67%
ERYTHROCYTE COUNT [3]: 5.12 x10E6/uL
HEMATOCRIT [3]: 34.53%
HEMOGLOBIN [3]: 13.77 G/DL
LEUKOCYTE COUNT [3]: 17.43 x10E3/uL
LYMPHOCYTE [3]: 93%
MEAN CORPUSCULAR HEMOGLOBIN [3]: 26.9 pg
MEAN CORPUSCULAR HEMOGLOBIN CONCENTRATION [3]: 39.93 G/DL
MEAN CORPUSCULAR VOLUME [3]: 67.37 fL
MONOCYTE [3]: 0%
NEUTROPHIL [3]: 6.33%
NUCLEATED RED BLOOD CELLS [3]: 0.33 /100WBC
PLATELET COUNT [3]: 1317.67 x10E3/uL
ALANINE AMINOTRANSFERASE [3]: 41.33 u/L
ALBUMIN [3]: 4.1 G/DL
ALKALINE PHOSPHATASE [3]: 454.33 u/L
ASPARTATE AMINOTRANSFERASE [3]: 81.67 u/L
BLOOD UREA NITROGEN [3]: 30.67 mg/dL
CARBON DIOXIDE [3]: 21.67 mmol/L
CHLORIDE [3]: 104.67 MEQ/L
CHOLESTEROL [3]: 56.67 mg/dL
CREATINE PHOSPHOKINASE [3]: 460 u/L
CREATININE [3]: 0.26 mg/dL
GLUCOSE [3]: 192.67 mg/dL
LACTATE DEHYDROGENASE [3]: 379.67 u/L
LIPASE [3]: 8 u/L
PHOSPHORUS [3]: 12.53 mg/dL
POTASSIUM [3]: 7.28 MEQ/L
SODIUM [3]: 143.5 MEQ/L
TOTAL BILIRUBIN [3]: 0.17 mg/dL
TOTAL PROTEIN [3]: 5.9 G/DL
URIC ACID [3]: 1.93 mg/dL
ABSOLUTE BASOPHIL [4]: 0 CELLS/uL
ABSOLUTE EOSINOPHIL [4]: 56.33 CELLS/uL
ABSOLUTE LYMPHOCYTE [4]: 15250 CELLS/uL
ABSOLUTE MONOCYTE [4]: 259.67 CELLS/uL
ABSOLUTE SEGMENTED NEUTROPHIL [4]: 1034 CELLS/uL
BASOPHIL [4]: 0%
EOSINOPHIL [4]: 0.33%
ERYTHROCYTE COUNT [4]: 5.8 x10E6/uL
HEMATOCRIT [4]: 35.77%
HEMOGLOBIN [4]: 14.07 G/DL
LEUKOCYTE COUNT [4]: 16.6 x10E3/uL
LYMPHOCYTE [4]: 92%
MEAN CORPUSCULAR HEMOGLOBIN [4]: 24.3 pg
MEAN CORPUSCULAR HEMOGLOBIN CONCENTRATION [4]: 39.37 G/DL
MEAN CORPUSCULAR VOLUME [4]: 61.63 fL
MONOCYTE [4]: 1.67%
NEUTROPHIL [4]: 6%
NUCLEATED RED BLOOD CELLS [4]: 0 /100WBC
PLATELET COUNT [4]: 1413.67 x10E3/uL
ALANINE AMINOTRANSFERASE [4]: 55.33 u/L
ALBUMIN [4]: 4.33 G/DL
ALKALINE PHOSPHATASE [4]: 583.33 u/L
ASPARTATE AMINOTRANSFERASE [4]: 89.33 u/L
BLOOD UREA NITROGEN [4]: 31.33 mg/dL
CARBON DIOXIDE [4]: 29 mmol/L
CHLORIDE [4]: 102 MEQ/L
CHOLESTEROL [4]: 35 mg/dL
CREATINE PHOSPHOKINASE [4]: 314.67 u/L
CREATININE [4]: 0.26 mg/dL
GLUCOSE [4]: 150.33 mg/dL
LACTATE DEHYDROGENASE [4]: 374.33 u/L
LIPASE [4]: 8.67 u/L
PHOSPHORUS [4]: 11.03 mg/dL
POTASSIUM [4]: 7.1 MEQ/L
SODIUM [4]: 143.93 MEQ/L
TOTAL BILIRUBIN [4]: 0.27 mg/dL
TOTAL PROTEIN [4]: 6.3 G/DL
URIC ACID [4]: 1.6 mg/dL
